The values below come from the supplement of paper PMC6470124.

Data set [1] can be described thus: LC retention time (Atlantis T3, 5-95% MeOH gradient, 0.1% formic acid); higher = more retained / less polar. In short, it runs like this: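 Retention times were recorded for reference standards (purity ≥ 95%) on a polar reversed-phase C18 column (Atlantis T3, 3 × 150 mm, 3 μm) at 0.3 mL/min. Elution used water and methanol, each with 0.1% formic acid, in a gradient from 5 to 95% methanol over 17.5 min. Detection was by high-resolution tandem mass spectrometry on a QExactive Plus, with positive and negative electrospray in separate runs. Peaks were found and integrated in TraceFinder (5 ppm tolerance, at least three points per peak) and then checked by hand.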

A short description of data set [2]: absolute recovery over mixed-bed multilayer solid-phase extraction; higher = better recovery. The note with it: enrichment method: SPE. In a few lines:
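Wastewater (100–250 mL, adjusted to pH 6.5 and glass-fibre filtered) or 1000 mL unfiltered nanopure water was loaded on a three-layer mixed-bed cartridge and eluted with basic then acidic ethyl acetate/methanol. Standards were spiked before extraction, after it, or not at all, at 200 ng/L (water) or 1000 ng/L (wastewater), with class exceptions. Internal standards were added afterwards, then LC-HRMS/MS ran in both ionisation modes. Absolute recovery compares background-corrected response ratios of pre- versus post-spiked samples, averaged over at least two replicates.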

A short description of data set [3]: absolute recovery over vacuum-assisted evaporative concentration; higher = better recovery. The following applies: enrichment method: VEC. In short, it runs like this: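 Standards were spiked into water samples before concentration, after concentration or not at all; volumes were 6 mL influent, 15 mL effluent and 60 mL surface or nanopure water. Spiking levels were 200 ng/L for nanopure and surface water and 1000 ng/L for wastewater, adjusted by class and compound. After evaporation at 55 °C and 20 mbar to about 0.3 mL, samples were brought to 0.4 mL, centrifuged, given internal standards and analysed by LC-HRMS/MS. Absolute recovery equals (response ratio pre − unspiked)/(post − unspiked) × 100, based on averages of ≥ 2 replicates.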

In data set [1], `O=[N+]([O-])c1ccc(C2OC2c2ccc([N+](=O)[O-])cc2S(=O)(=O)[O-])c(S(=O)(=O)[O-])c1` (stereo not given) [1-2-Bis-(4-4-dinitro-2-2-disulfonic acid-phenylethylenoxide] yielded an LC retention time of 19.7 min. For the same compound, the absolute recovery in data set [2] (nanopure water) is 106%.
`O=C([O-])C[NH+](CCC[NH+](CC(=O)[O-])CC(=O)[O-])CC(=O)[O-]` [1-3-Propylene-diaminotetraacetic-acid] showed an LC retention time in data set [1] of 3.58 min. Further, the absolute recovery in data set [3] (wastewater effluent) came to 85.1%; in data set [3] (wastewater influent) it was 117%.
In turn, `COC(=O)c1ccccc1S(N)(=O)=O` [2-Aminosulfonyl-benzoicacid-methylester] gave an LC retention time in data set [1] of 12.9 min. Further, the absolute recovery turned out to be 118% in data set [2] (nanopure water), 101% in data set [2] (surface water), 102% in data set [2] (wastewater effluent) and 91.4% in data set [2] (wastewater influent).
Consider `Nc1ccc2c(S(=O)(=O)[O-])cccc2c1S(=O)(=O)[O-]` [2-amino-1-5-napthalenedisulfonic-acid], for which the LC retention time in data set [1] was determined as 4.35 min.
In turn, `Oc1ccc(C(F)(F)F)cc1` [4-(Trifluoromethyl)phenol] yielded an LC retention time in data set [1] of 18.3 min. In addition, the absolute recovery is 68.5% in data set [2] (nanopure water), 71.8% in data set [2] (wastewater effluent) and 95.1% in data set [2] (wastewater influent).
`CC(=O)Nc1c(C)n(C)n(-c2ccccc2)c1=O` [4-Acetamidoantipyrin (=N-Acetyl-4-Aminoantipyrin, 4-AAA)] came in with an LC retention time in data set [1] of 11.9 min. The absolute recovery in data set [2] (nanopure water) came to 96%; in data set [2] (surface water), 84.5%; in data set [2] (wastewater effluent), 87.5%.
`O=C(c1ccccc1)c1ccc(Cl)cc1` [4-Chlorobenzophenone] gave an LC retention time in data set [1] of 20.9 min. The absolute recovery in data set [2] (nanopure water) came out at 83.1%; in data set [2] (surface water), 97.1%; in data set [2] (wastewater effluent) it was 86.1%; in data set [2] (wastewater influent) it was 37.3%.
The matching figures for `Cc1c(NC=O)c(=O)n(-c2ccccc2)n1C` [4-Formylaminoantipyrin (=4-FAA)]: 11.7 min, 101%, 93.6%, 90.2% and 103%.
`Nc1c(I)c(C(=O)[O-])c(I)c(C(=O)[O-])c1I` [5-Amino-2-4-6-triiodoisophthalic-acid] registered an LC retention time in data set [1] of 10.2 min.
As to `CC1(C)SC2C([NH3+])C(=O)N2C1C(=O)[O-]` (stereo not given) [6-Aminopenicillanic-acid], in data set [1], the LC retention time was 4.79 min. Also, the absolute recovery in data set [3] (wastewater effluent) came out at 90.3%; in data set [3] (wastewater influent) it was 86.7%.
In data set [1], `CC(=O)NCCCS(=O)(=O)[O-]` [Acamprosat] displayed an LC retention time of 4.93 min.
`CC1=CC(=O)[N-]S(=O)(=O)O1` [Acesulfam] gave an LC retention time in data set [1] of 9.43 min. The absolute recovery in data set [2] (nanopure water) stood at 93.2%.
Compound `CCOCN(C(=O)CS(=O)(=O)[O-])c1c(C)cccc1CC` [Acetochlor-ESA] displayed an LC retention time in data set [1] of 17.2 min. This compound came in with an absolute recovery in data set [3] (wastewater influent) of 108%.
As to `Nc1ncnc2c1ncn2C1OC(CO)C(O)C1O` (stereo not given) [Adenosine], in data set [1], the LC retention time was found to be 7.57 min. Moreover, the absolute recovery was found to be 82% in data set [2] (nanopure water), 69.4% in data set [2] (surface water) and 73.7% in data set [2] (wastewater effluent).
Compound `CCc1cccc(CC)c1N(COC)C(=O)CS(=O)(=O)[O-]` [Alachlor-ESA] registered an LC retention time in data set [1] of 17.2 min. The compound also yielded an absolute recovery in data set [3] (wastewater influent) of 106%.
`CC(C)(C)[NH2+]CC(O)c1ccc(O)c(CO)c1` (stereo not given) [Albuterol] yielded an LC retention time in data set [1] of 8.59 min. In addition, the absolute recovery in data set [3] (wastewater effluent) was 102%; in data set [3] (wastewater influent) it was 99.8%.
`O=c1ncnc2[nH][nH]cc1-2` [Allopurinol] showed an LC retention time in data set [1] of 6.21 min. This compound gave an absolute recovery in data set [2] (nanopure water) of 113%.
On to `CC1=C(C(=O)[O-])N2C(=O)C(NC(=O)C([NH3+])c3ccccc3)C2SC1` (stereo not given) [Cefalexin], for which the LC retention time in data set [1] worked out at 20.2 min. The compound further registered an absolute recovery in data set [3] (wastewater effluent) of 65.2%.
Compound `C[NH+]1CCN(C2=Nc3cc(Cl)ccc3Nc3ccccc32)CC1` [Clozapin] returned an LC retention time in data set [1] of 14.4 min. For the same compound, the values for the absolute recovery in data set [3] (wastewater effluent) and in data set [3] (wastewater influent) were 102% and 98%, respectively.
In data set [1], `OCC(O)C(O)C(OC1OC(CO)C(O)C(O)C1O)C(O)CO` [D-Lactitol] had an LC retention time of 2.76 min.
`CC(C)CN(CC(O)C(Cc1ccccc1)NC(=O)OC1COC2OCCC12)S(=O)(=O)c1ccc(N)cc1` (stereo not given) [Darunavir] came in with an LC retention time in data set [1] of 18 min. The absolute recovery in data set [3] (wastewater effluent) worked out at 101%; in data set [3] (wastewater influent), 99.7%.
`CCOC(=O)Nc1cccc(OC(=O)Nc2ccccc2)c1` [Desmedipham D] showed an LC retention time in data set [1] of 18.6 min. In addition, the absolute recovery in data set [2] (nanopure water) is 90.8%; in data set [2] (surface water), 117%; in data set [2] (wastewater effluent) it was 106%; in data set [2] (wastewater influent) it was 76.2%.
`CCOP(=O)(OCC)Oc1cc(C)nc(C(C)C)n1` [Diazoxon] showed an LC retention time in data set [1] of 18.8 min. Also, the values for the absolute recovery in data set [3] (wastewater effluent) and in data set [3] (wastewater influent) were 85.6% and 95.3%, respectively.
The compound `[NH3+]CCc1ccc(O)c(O)c1` [Dopamine] showed an LC retention time in data set [1] of 4.36 min. Further, the absolute recovery in data set [2] (nanopure water) was determined as 23.9%.
In data set [1], `C[NH2+]CC(O)c1ccc(O)c(O)c1` (stereo not given) [Epinephrine] gave an LC retention time of 3.27 min. In addition, the absolute recovery in data set [2] (nanopure water) came out at 40.2%; in data set [2] (surface water), 12.7%; in data set [2] (wastewater effluent), 15.9%; in data set [2] (wastewater influent) it was 26.6%.
The compound `N#Cc1nn(-c2c(Cl)cc(C(F)(F)F)cc2Cl)c(N)c1C(F)(F)F` [Fipronil-desulfinyl] gave an LC retention time in data set [1] of 20.2 min. This compound returned an absolute recovery in data set [2] (nanopure water) of 139%.
